Target: T1, CLOCK-F80A-K220A and BMAL1 interaction (Homo sapiens, UniProt O15516, F80A/K220A)
T1 construct: expressed in transfected cells; host or cells: HEK 293T
T1 sequence (O15516 1-846 F80A/K220A): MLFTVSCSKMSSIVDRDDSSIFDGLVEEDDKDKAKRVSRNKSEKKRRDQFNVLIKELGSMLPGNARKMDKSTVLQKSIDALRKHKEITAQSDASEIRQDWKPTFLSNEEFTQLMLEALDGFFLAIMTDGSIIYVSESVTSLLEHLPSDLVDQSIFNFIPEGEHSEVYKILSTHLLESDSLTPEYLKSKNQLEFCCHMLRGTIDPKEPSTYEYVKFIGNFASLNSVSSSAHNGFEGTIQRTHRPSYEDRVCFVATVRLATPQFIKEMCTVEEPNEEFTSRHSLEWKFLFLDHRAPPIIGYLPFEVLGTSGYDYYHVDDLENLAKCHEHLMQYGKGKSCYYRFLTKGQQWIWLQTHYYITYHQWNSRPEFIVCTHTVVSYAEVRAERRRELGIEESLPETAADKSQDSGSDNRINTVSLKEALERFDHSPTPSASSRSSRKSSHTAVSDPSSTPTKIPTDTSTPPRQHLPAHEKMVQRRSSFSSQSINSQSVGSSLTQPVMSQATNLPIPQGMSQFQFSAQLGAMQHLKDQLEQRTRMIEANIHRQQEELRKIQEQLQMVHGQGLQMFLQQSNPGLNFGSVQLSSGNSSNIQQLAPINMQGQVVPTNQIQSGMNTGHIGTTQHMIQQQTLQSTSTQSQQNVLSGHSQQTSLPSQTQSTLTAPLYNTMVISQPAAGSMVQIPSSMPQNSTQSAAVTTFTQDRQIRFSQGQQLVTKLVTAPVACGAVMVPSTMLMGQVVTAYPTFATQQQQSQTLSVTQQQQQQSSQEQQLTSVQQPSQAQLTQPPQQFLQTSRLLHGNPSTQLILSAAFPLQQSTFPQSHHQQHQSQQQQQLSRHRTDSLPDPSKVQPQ
Experiment: Co-immunoprecipitation of FLAG-CLOCK-F80A-K220A and BMAL1
Assay type: biochemical
Conditions: 40 μM
Procedure: HEK 293T cells co-expressing wild type or F80A-K220A mutant FLAG-tagged Clock together with tag-free Bmal1 were lysed with ice-cold lysis buffer (50 mM Tris-HCl PH 7.7, 150 mM NaCl, 0.1% Triton X-100, 1 mM PMSF and protease inhibitor cocktail) and centrifuged at 15000×g at 4° C. for 20 minutes. DMSO and different concentrations of CLK8 were added to the whole cell lysate. The mixtures were incubated with anti-FLAG M2 affinity gel (Sigma-Aldrich) at 4° C. overnight with continuous mixing. After three wash steps, bound proteins were eluted with Laemmli buffer heated at 95° C. for 7 minutes. CLOCK and BMAL1 were detected by monoclonal anti-FLAG M2 antibody (Sigma-Aldrich) and anti-BMAL1 (Santa Cruz Biotechnology) respectively. The amount of co-precipitated BMAL1 was normalized with the amount of precipitated CLOCK.
HEK 293T cells co-expressing wild type or F80A-K220A mutant FLAG-tagged Clock together with tag-free Bmal1 were lysed with ice-cold lysis buffer (50 mM Tris-HCl pH 7.7, 150 mM NaCl, 0.1% Triton X-100, 1 mM PMSF and protease inhibitor cocktail) and centrifuged at 15000×g at 4° C. for 20 minutes. DMSO and different concentrations of CLK8 were added to the whole cell lysate. […] CLOCK and BMAL1 were detected by monoclonal anti-FLAG M2 antibody (Sigma-Aldrich) and anti-BMAL1 (Santa Cruz Biotechnology) respectively. […]

For CC1(C)CCc2c(cc(OCC(=O)Nc3ccccc3C(N)=O)c3c(-c4ccccc4)cc(=O)oc23)O1 [CLK8, 2-[2-({12,12-dimethyl-4-oxo-6-phenyl-3,11-dioxatricyclo [8.4.0.0,2,7]tetradeca-1,5,7,9-tetraen-8-yl}oxy)acetamido] benzamide], the “interaction between CLOCK-F80A-K220A and BMAL1” value was “not affected”.

Reference: patent US12558342B2, “2-[2-({12,12-dimethyl-4-oxo-6-phenyl-3,11-dioxatricyclo[8.4.0.0,2,7]tetradeca-1,5,7,9-tetraen-8-yl}oxy)acetamido]benzamide and derivatives as inhibitor of clock:bmal1 interaction for the treatment of circadian rhythm diseases and disorders” (KOC UNIVERSITESI, priority 2019, dated 2026)
